The source of these data is ChEMBL document CHEMBL1777795, “From benzimidazole to indole-5-carboxamide Thumb Pocket I inhibitors of HCV NS5B polymerase. Part 1: indole C-2 SAR and discovery of diamide derivatives with nanomolar potency in cell-based subgenomic replicons” (Bioorg Med Chem Lett, 2011).

The nature of data set [1]: AUC in Sprague-Dawley rat at 10 mg/kg, po. The class given is ADME, organism-based. The following applies: plasma. Further details: dose 10 mg/kg, route oral.
A short description of data set [2]: (§1) Permeability from apical to basolateral side of human Caco2 cells. The class given is ADME, cell-based, Caco-2. The note with it: Caco-2, read-out: permeability.
The nature of data set [3]: Mean residence time in Sprague-Dawley rat at 10 mg/kg, po. Further details: dose 10 mg/kg, route oral. The following applies: in vivo. The data set is classed as ADME, organism-based.
Data set [4] can be described thus: Cmax in Sprague-Dawley rat at 10 mg/kg, po. Further details: dose 10 mg/kg, route oral. The class given is ADME, organism-based. The note with it: in vivo.
Another data set concerns Caco-2. The description is as §1. The note with it: caco-2, BLD = below limit of detection. The class given is ADME, cell-based.

The structures appear in SMILES notation.

Regarding `Cn1c(-c2ccccn2)c(C2CCCCC2)c2ccc(C(=O)NC(C)(C)C(=O)Nc3ccc(/C=C/C(=O)O)cc3)cc21`, in data set [1], the AUC is 0.87 µM·h. Further, the Papp A→B in data set [2] was determined as 16 ×10⁻⁶ cm/s. The compound further came in with an MRT in data set [3] of 0.5 h. The Cmax in data set [4] turned out to be 1230 nM.

On to `Cn1c(-c2ccoc2)c(C2CCCCC2)c2ccc(C(=O)NC(C)(C)C(=O)Nc3ccc(/C=C/C(=O)O)cc3)cc21`, for which the Papp A→B in data set [2] is 6 ×10⁻⁶ cm/s.

For `Cn1c(-c2nccs2)c(C2CCCCC2)c2ccc(C(=O)NC(C)(C)C(=O)Nc3ccc(/C=C/C(=O)O)cc3)cc21`, in data set [2], the Papp A→B was found to be 8.5 ×10⁻⁶ cm/s.

Take `Cn1c(-c2cnco2)c(C2CCCCC2)c2ccc(C(=O)NC(C)(C)C(=O)Nc3ccc(/C=C/C(=O)O)cc3)cc21`: the Papp A→B in data set [2] is 5 ×10⁻⁶ cm/s.

Take `Cn1c(-c2csc(-c3cccnc3)n2)c(C2CCCCC2)c2ccc(C(=O)NC(C)(C)C(=O)Nc3ccc(/C=C/C(=O)O)cc3)cc21`: the Papp A→B in data set [2] came out at 0.2 ×10⁻⁶ cm/s.

As to `Cn1c(-c2ccc3ncccc3c2)c(C2CCCCC2)c2ccc(C(=O)NC(C)(C)C(=O)Nc3ccc(/C=C/C(=O)O)cc3)cc21`, in the data set on Caco-2, the permeability result is given as “BLD”.

As for `Cn1c(-c2cccc3cccnc23)c(C2CCCCC2)c2ccc(C(=O)NC(C)(C)C(=O)Nc3ccc(/C=C/C(=O)O)cc3)cc21`, the Papp A→B in data set [2] was 3.4 ×10⁻⁶ cm/s.

In the case of `Cn1c(-c2cccnc2)c(C2CCCCC2)c2ccc(C(=O)NC(C)(C)C(=O)Nc3ccc(/C=C/C(=O)O)cc3)cc21`, the Papp A→B in data set [2] came to 9.4 ×10⁻⁶ cm/s.

On to `Cn1c(-c2ccncc2)c(C2CCCCC2)c2ccc(C(=O)NC(C)(C)C(=O)Nc3ccc(/C=C/C(=O)O)cc3)cc21`, for which the Papp A→B in data set [2] came out at 0.3 ×10⁻⁶ cm/s.

Turning to `Cc1cccc(-c2c(C3CCCCC3)c3ccc(C(=O)NC(C)(C)C(=O)Nc4ccc(/C=C/C(=O)O)cc4)cc3n2C)n1`, the Papp A→B in data set [2] stood at 6.9 ×10⁻⁶ cm/s.

As for `Cc1ccc(-c2c(C3CCCCC3)c3ccc(C(=O)NC(C)(C)C(=O)Nc4ccc(/C=C/C(=O)O)cc4)cc3n2C)nc1`, in data set [2], the Papp A→B came out at 16.4 ×10⁻⁶ cm/s.

`Cc1ccc(-c2c(C3CCCCC3)c3ccc(C(=O)NC(C)(C)C(=O)Nc4ccc(/C=C/C(=O)O)cc4)cc3n2C)cn1`: the Papp A→B in data set [2] was determined as 2.6 ×10⁻⁶ cm/s.

`Cn1c(-c2cccc(N)n2)c(C2CCCCC2)c2ccc(C(=O)NC(C)(C)C(=O)Nc3ccc(/C=C/C(=O)O)cc3)cc21` yielded an AUC in data set [1] of 1.18 µM·h. In data set [2], the Papp A→B was determined as 1.5 ×10⁻⁶ cm/s. For the same compound, the MRT in data set [3] came out at 3.4 h. This compound showed a Cmax in data set [4] of 990 nM.

In the case of `COc1cccc(-c2c(C3CCCCC3)c3ccc(C(=O)NC(C)(C)C(=O)Nc4ccc(/C=C/C(=O)O)cc4)cc3n2C)n1`, the Papp A→B in data set [2] came out at 24 ×10⁻⁶ cm/s.

Regarding `Cn1c(-c2cncnc2)c(C2CCCCC2)c2ccc(C(=O)NC(C)(C)C(=O)Nc3ccc(/C=C/C(=O)O)cc3)cc21`, in data set [2], the Papp A→B amounted to 3.3 ×10⁻⁶ cm/s.

Take `Cn1c(-c2cnccn2)c(C2CCCCC2)c2ccc(C(=O)NC(C)(C)C(=O)Nc3ccc(/C=C/C(=O)O)cc3)cc21`: in data set [2], the Papp A→B was found to be 7 ×10⁻⁶ cm/s.
